One series concerns CT26 tumors. The format is in vivo. The source says:
This example covers in vivo assessments of anti-tumor activity of ADCs with TLR7/8 agonists. An in vivo syngeneic system was used to assess the ability of the ADCs having TLR ⅞ agonists as the payload to induce immune responses and drive an anti-tumor immune response using a subcutaneous, heterotopic mouse colon carcinoma model (a CT26 system). Female Balb/c mice were implanted with 1×10^5 CT26 cells sub-cutaneously in the flank on day 0. When mean tumor size of 100 mm^3 (measured using the formula: Volume (mm^3)=0.5*Length*Width^2 where length is the longer dimension) was reached, the mice were randomized into treatment groups of 6 mice per group. Animals were then treated intraperitoneally with the indicated treatment every 7 days, for 3 doses total. Stock concentrations of the ADCs were diluted to the appropriate concentration and injected into animals in 100 μL volumes. Tumor length and width and mouse weights were measured throughout the study and tumor volume was calculated using the formula above. Animals were followed until tumor volume reached 1000 mm^3, when animals were then euthanized.

Series [1] concerns plasma cytokines. Description: Systemic cytokine response in CT26-tumor bearing mice. The format is in vivo, mouse. The protocol: In addition to analyzing this response in non-tumor bearing animals simply on systemic immune activation, the C4/N1-linked TLR7/8 drug antibody conjugates were also administered to CT26-tumor bearing animals to determine how the linkage site affects cytokine response and anti-tumor response. The results are shown in FIG. 17, which provides MIP1b (top panel) and TNFα (bottom panel) responses generated with N1-(cmpd 9) and C4-(cmpd 11) linked compounds conjugated to targeting and non-targeting antibodies, as well as for untreated cells. […] This was true for targeted and non-targeted control conjugates.

Series [2] deals with plasma cytokines. Description: Systemic plasma cytokine induction in non-tumor bearing Balb/c mice. The format is in vivo, mouse.
Another series relates to Renca tumors. Put plainly: Renca kidney carcinoma model in Balb/c mice. As to conditions: for loss of potency, C4-linked vs N1-linked conjugate: dose increase of C4-linked conjugate needed to match 2 mg/kg N1-linked conjugate. The format is in vivo, mouse. The protocol: The difference in anti-tumor activity of the S18a and S18b conjugates was also assessed in the Renca kidney model. In this model, mice bearing Renca tumors were treated q7dx3 when tumors reached ˜100 mm^3 as indicated, and followed for mean group tumor growth (FIG. 14, top) and survival (FIG. 14, bottom) over time.
This example covers cancer treatment with EphA2 targeted TLR agonists. […] Balb/c mice were implanted with Renca tumor cells and when cells reached 100 mm^3 they were treated Q7dx3 treatments with 2.4 mg/kg of the indicated IDC, either non targeting isotype or an EphA2 targeting mAb.

The target in another series is T1, hTLR7 (Homo sapiens, UniProt Q9NYK1).
T1 construct: expressed in transfected cells; host or cells: HEK Blue hTLR7 cells
T1 sequence (Q9NYK1 27-1049): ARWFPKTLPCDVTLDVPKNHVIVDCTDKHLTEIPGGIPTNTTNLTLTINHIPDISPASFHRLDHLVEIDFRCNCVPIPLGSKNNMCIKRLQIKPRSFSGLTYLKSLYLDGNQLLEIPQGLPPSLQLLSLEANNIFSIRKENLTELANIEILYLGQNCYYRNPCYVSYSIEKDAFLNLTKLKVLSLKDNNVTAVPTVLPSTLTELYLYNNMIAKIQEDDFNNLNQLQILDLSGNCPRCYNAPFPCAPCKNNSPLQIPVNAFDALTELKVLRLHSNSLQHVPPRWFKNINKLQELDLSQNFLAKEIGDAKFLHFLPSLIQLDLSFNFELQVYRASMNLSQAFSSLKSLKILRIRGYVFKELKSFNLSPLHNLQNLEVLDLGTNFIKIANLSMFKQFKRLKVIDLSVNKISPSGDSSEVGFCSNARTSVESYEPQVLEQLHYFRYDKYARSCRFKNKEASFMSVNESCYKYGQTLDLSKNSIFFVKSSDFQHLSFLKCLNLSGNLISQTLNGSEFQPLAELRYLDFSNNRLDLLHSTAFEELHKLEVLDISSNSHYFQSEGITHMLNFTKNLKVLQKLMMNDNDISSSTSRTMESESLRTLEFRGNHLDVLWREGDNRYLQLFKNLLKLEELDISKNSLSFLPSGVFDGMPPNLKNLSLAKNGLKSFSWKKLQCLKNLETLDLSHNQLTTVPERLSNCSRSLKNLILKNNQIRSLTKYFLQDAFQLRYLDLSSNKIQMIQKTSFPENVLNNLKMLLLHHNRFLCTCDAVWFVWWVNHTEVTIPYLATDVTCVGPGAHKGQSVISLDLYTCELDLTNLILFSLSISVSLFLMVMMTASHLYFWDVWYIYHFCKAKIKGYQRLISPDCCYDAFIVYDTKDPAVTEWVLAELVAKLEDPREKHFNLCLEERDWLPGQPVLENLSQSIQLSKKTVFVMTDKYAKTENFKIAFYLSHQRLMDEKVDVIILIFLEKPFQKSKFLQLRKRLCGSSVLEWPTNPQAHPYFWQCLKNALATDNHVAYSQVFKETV
Description: HEK Blue hTLR7 cell assay of free TLR7/8 agonists. As to conditions: for EC50: HEK Blue hTLR7 cells, free agonist; for TLR7/TLR8: ratio of EC50 hTLR7 to EC50 hTLR8. Format: cell-based. The protocol: (§1) This example covers toll-like receptor 7 (TLR7) and toll-like receptor 8 (TLR8) selectivity of imidazoquinoline agonists. Assessment of TLR7 and TLR8 selectivity for the free TLR7/8 agonists was performed using HEK Blue hTLR7 and hTLR8 cells over a large dose range of compounds. […] Activities were determined based on calculated EC50 (in μM) in each cell line, and are summarized in TABLE 4 below, with columns providing targets and rows providing compounds.

The target of another series is T2, hTLR8 (Homo sapiens, UniProt Q9NR97).
T2 construct: expressed in transfected cells; host or cells: HEK Blue hTLR8 cells
T2 sequence (Q9NR97 27-1041): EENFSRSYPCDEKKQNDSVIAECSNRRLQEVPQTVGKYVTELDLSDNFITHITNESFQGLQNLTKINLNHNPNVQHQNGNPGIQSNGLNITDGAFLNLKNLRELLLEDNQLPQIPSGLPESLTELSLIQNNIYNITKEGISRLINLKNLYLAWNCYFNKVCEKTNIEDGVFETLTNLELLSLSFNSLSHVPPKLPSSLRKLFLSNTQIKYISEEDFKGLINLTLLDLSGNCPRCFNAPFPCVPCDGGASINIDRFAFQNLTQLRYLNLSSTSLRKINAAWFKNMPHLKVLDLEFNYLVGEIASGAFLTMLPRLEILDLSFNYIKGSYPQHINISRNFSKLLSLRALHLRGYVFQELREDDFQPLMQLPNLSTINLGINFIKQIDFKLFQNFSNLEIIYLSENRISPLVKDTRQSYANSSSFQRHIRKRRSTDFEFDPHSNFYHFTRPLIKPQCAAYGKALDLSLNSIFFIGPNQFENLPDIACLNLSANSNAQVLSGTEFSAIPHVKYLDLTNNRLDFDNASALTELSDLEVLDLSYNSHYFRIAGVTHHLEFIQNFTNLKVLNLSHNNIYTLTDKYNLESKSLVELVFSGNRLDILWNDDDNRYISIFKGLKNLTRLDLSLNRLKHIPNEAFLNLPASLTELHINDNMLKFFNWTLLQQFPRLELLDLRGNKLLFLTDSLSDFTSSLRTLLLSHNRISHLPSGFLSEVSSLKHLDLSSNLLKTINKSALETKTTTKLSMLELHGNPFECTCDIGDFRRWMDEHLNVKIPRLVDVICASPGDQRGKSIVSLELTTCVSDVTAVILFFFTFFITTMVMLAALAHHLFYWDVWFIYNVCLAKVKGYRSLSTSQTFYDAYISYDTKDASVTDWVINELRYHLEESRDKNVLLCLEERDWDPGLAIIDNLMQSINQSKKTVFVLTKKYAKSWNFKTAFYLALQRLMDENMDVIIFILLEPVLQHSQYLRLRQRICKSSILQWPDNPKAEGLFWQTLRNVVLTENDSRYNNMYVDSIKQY
Put plainly: HEK Blue hTLR8 cell assay of free TLR7/8 agonists. The format is cell-based. As to conditions: HEK Blue hTLR8 cells, free agonist. As for the experimental part:
as §1

Series [3] can be described thus: SEC analysis of ADC aggregation (high molecular weight species) in plasma. Format: physicochemical. As to conditions: ADC incubated with human or mouse plasma, FIG. 9. The protocol: Method I: Size-exclusion chromatography (SEC) was performed with a Waters ACQUITY UPLC system and an Acquity UPLC Protein BEH SEC Column, (200 Å, 1.7 μm, 4.6×150 mm, PN: 186005225). The mobile phase used was 7.5% isopropanol in 92.5% aqueous (25 mM sodium phosphate, 350 mM NaCl, pH 6.8), v/v. Elution was performed isocratically at a flow rate of 0.4 mL/min at ambient temperature.
To determine if any of these differences in activity potentially resulted from increases in aggregation as a subsequent result of changes in charge, SEC analysis was performed. ADCs containing either S18a (methyl ester) or S18b (carboxylic acid) were incubated with both human or mouse plasma and assessed for the formation of high molecular weight species (HMW) over time.

In a further series the test system is primary human PBMCs. Description: Cytokine induction in primary human PBMCs by small molecule TLR7/8 agonists (Luminex). The format is cell-based. As to conditions: free drug. As for the experimental part: This example covers dose dependent human immune cell activation by small molecule TLR7/8 agonists. Primary human PBMCs were isolated from peripheral whole blood from human donors and were subjected to treatment with increasing concentrations of the agonists diluted in PBS. Cell culture supernatants were harvested 24 h after treatment and analyzed for induction of cytokines via multiplex ELISAs (Luminex).
Several small molecule TLR7/8 agonists were assessed for their ability to activate human immune cells in a dose dependent manner. Primary human PBMCs were isolated from peripheral whole blood from human donors and were subjected to treatment with increasing concentrations of the agonists diluted in PBS. 24 h after treatment cell culture supernatants were harvested and analyzed for induction of cytokines via multiplex ELISAs (Luminex).

Setting [4] is: tumor/immune targeted mAb, 2 mg/kg every 7 days, 3 doses, FIG. 38.

Here are results for 3 compounds from patent US20250090875A9, “IMMUNOSTIMULATORY COMPOUNDS AND CONJUGATES” (Seagen Inc., priority 2021, published 2025).

In general, EC50 refers to the concentration that produces a half-maximal response. Read a low EC50 as a more potent agent.

As for `CCCCc1nc2c(NC(=O)OCc3ccc(O[C@H]4O[C@H](CO)[C@@H](O)[C@H](O)[C@@H]4O)c(NC(=O)CCNC(=O)[C@H](CCCCNC(=O)CCOCCOCCOCCOCCOCCOCCOCCOCCOCCOCCOCCOC)NC(=O)CCN4C(=O)C=CC4=O)c3)nc3cc(C(=O)O)ccc3c2n1Cc1ccc(CN(C)C)cc1` [cmpd 11, 2-butyl-1-(4-((dimethylamino)methyl)benzyl)-4-((((3-((S)-44-(3-(2,5-dioxo-2,5-dihydro-1H-pyrrol-1-yl)propanamido)-38,45-dioxo-2,5,8,11,14,17,20,23,26,29,32,35-dodecaoxa-39,46-diazanonatetracontan-49-amido)-4-(((2R,3 S,4S,5 S,6R)-3,4,5-trihydroxy-6-(hydroxymethyl)tetrahydro-2H-pyran-2-yl)oxy)benzyl)oxy)carbonyl)amino)-1H-imidazo[4,5-c]quinoline-7-carboxylic acid], the “animals reaching complete tumor cures” value in the series with CT26 tumors (EphA2 targeting mAb) turned out to be 50%. For the same compound, the “anti-tumor activity and tumor growth delay” value with CT26 tumors (EphA2 targeting mAb or isotype, FIGS. 35, 36) was “all animals benefiting from tumor growth delay”. For the same compound, in the series on CT26 tumors (setting [4]), the animals fully cured result was “no cures” and the “median tumor volume (tumor growth delay)” value was “advantage with the TLR7/8 containing IDC vs the naked tumor/immune targeted mAb in terms of tumor growth delay”. For the same compound, the “systemic activation (majority of cytokines), C4 vs N1 linkage” value in the series with plasma cytokines [1] (targeted and non-targeted control conjugates, FIG. 17) is reported as “reduced systemic activation”. Further, the “TNFα and MIP1β, C4 vs N1 linkage” value in the series with plasma cytokines [1] (targeted antibody conjugate) is reported as “equivalent for TNFα but showed benefit for MIP1β”. Moreover, the “IL6 and TNFα levels, C4 vs N1 linkage” value in the series with plasma cytokines [2] (immune-targeted ADC, 2 mg/kg intraperitoneal) was “no changes in IL6 or TNFα levels”. In the series with plasma cytokines [2] (immune-targeted ADC, 2 mg/kg intraperitoneal, plasma 3/6/24 h), the “reduction of systemic cytokine induction (MCP1, IP10, MIP1a, MIP1b, RANTES), C4 vs N1 linkage” value was 4.8 -fold. For the same compound, the “systemic cytokines (MIP1β, TNFα), C4 vs N1 linkage” value in the series on plasma cytokines [2] (non-targeting ADC, FIG. 16) was “greatly diminished systemic cytokines and non-specific uptake”. Also, the tumor growth entry in the series on Renca tumors (EphA2 targeting mAb or isotype, Q7dx3, 2-2.4 mg/kg) is “substantial tumor growth delayed noted for several of the animals”. Also, the “loss of potency, C4-linked vs N1-linked conjugate” value in the series with Renca tumors was approximately 4 ×. Moreover, the “loss of potency, C4-linked vs N1-linked conjugate” value in the series with Renca tumors (listed as Compound 11) is “approximately 4 ×”.
With `CCCCc1nc2c(N)nc3cc(C(=O)OC)ccc3c2n1CCCCCN` [S14a], at hTLR7, the EC50 worked out at 2.53 µM and the TLR7/TLR8 was found to be 0.28. For the same compound, the EC50 on hTLR8 stood at 8.84 µM.
Take `CCCCc1nc2c(N)nc3cc(C(=O)OC)ccc3c2n1Cc1ccc(CN(C)C)cc1` [S18a]: in series [3], the “aggregation (formation of high molecular weight species over time)” value is listed as “no significant difference in the amounts of aggregation”. The values for the EC50 on hTLR7 and on hTLR8 were 0.44 µM and 10.3 µM, respectively. Besides, the TLR7/TLR8 on hTLR7 is recorded as 0.04. Further, the “IL12p40 and IL1β responses” value in the series with primary human PBMCs (FIG. 5) is “lower responses of both cytokines”. In addition, the “potency and activity of cytokine induction (IL6, TNFα, MCP1, IP10)” value in the series with primary human PBMCs (ranking, FIG. 30) was “other two most potent compounds”. Further, in the series with Renca tumors (ADC, q7dx3 from ~100 mm^3, FIG. 14), the “tumor growth and survival” value is given as “some tumor growth benefit though no real survival benefit”.
